Data taken from PubChem BioAssay (NCI).
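Each compound was tested at five concentrations against cells in 96-well plates for 48 hours. TGI is the concentration that stops growth completely.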

How the values were obtained:
Test in all cases: NCI anticancer screen, dose series, 48 h
A498 renal = system: A498 renal
NCI-H522 lung = system: NCI-H522 lung
HOP-92 NSCLC = system: HOP-92 NSCLC
OVCAR-5 ovarian = system: OVCAR-5 ovarian
UO-31 renal = system: UO-31 renal
HOP-62 NSCLC = system: HOP-62 NSCLC
SN12C renal = system: SN12C renal
U251 CNS = system: U251 CNS
UACC-62 melanoma = system: UACC-62 melanoma
SK-MEL-2 melanoma = system: SK-MEL-2 melanoma
SNB-19 CNS = system: SNB-19 CNS
SK-OV-3 ovarian = system: SK-OV-3 ovarian
IGROV1 ovarian = system: IGROV1 ovarian
ACHN renal = system: ACHN renal
LOX IMVI melanoma = system: LOX IMVI melanoma
HCC-2998 colon = system: HCC-2998 colon
M19-MEL melanoma = system: M19-MEL melanoma
OVCAR-8 ovarian = system: OVCAR-8 ovarian
MOLT-4 leukemia = system: MOLT-4 leukemia
KM12 colon = system: KM12 colon
HCT-15 colon = system: HCT-15 colon
SK-MEL-5 melanoma = system: SK-MEL-5 melanoma
EKVX NSCLC = system: EKVX NSCLC
SNB-78 CNS = system: SNB-78 CNS
SW-620 colon = system: SW-620 colon
OVCAR-3 ovarian = system: OVCAR-3 ovarian
M14 melanoma = system: M14 melanoma
UACC-257 melanoma = system: UACC-257 melanoma
NCI-H23 lung = system: NCI-H23 lung
LXFL 529 NSCLC = system: LXFL 529 NSCLC
HCT-116 colon = system: HCT-116 colon
DMS 273 small cell lung = system: DMS 273 small cell lung
K-562 leukemia = system: K-562 leukemia
XF 498 CNS = system: XF 498 CNS
SK-MEL-28 melanoma = system: SK-MEL-28 melanoma
HL-60(TB) leukemia = system: HL-60(TB) leukemia
SF-268 CNS = system: SF-268 CNS
SR leukemia = system: SR leukemia
RXF 393 renal = system: RXF 393 renal
HT29 colon = system: HT29 colon
SF-295 CNS = system: SF-295 CNS
CCRF-CEM leukemia = system: CCRF-CEM leukemia
TK-10 renal = system: TK-10 renal
KM20L2 colon = system: KM20L2 colon
NCI-H460 lung = system: NCI-H460 lung
SF-539 CNS = system: SF-539 CNS
NCI-H226 lung = system: NCI-H226 lung
A549 NSCLC = system: A549 NSCLC
COLO 205 colon = system: COLO 205 colon
DLD-1 colon = system: DLD-1 colon
HOP-18 NSCLC = system: HOP-18 NSCLC
786-0 renal = system: 786-0 renal
OVCAR-4 ovarian = system: OVCAR-4 ovarian
MALME-3M melanoma = system: MALME-3M melanoma
SNB-75 CNS = system: SNB-75 CNS
RPMI-8226 leukemia = system: RPMI-8226 leukemia
DMS 114 small cell lung = system: DMS 114 small cell lung
CAKI-1 renal = system: CAKI-1 renal

Measured: TGI

CCN(CC)/[N+]([O-])=N/OC
not listed: COLO 205 colon | DLD-1 colon | HOP-18 NSCLC | 786-0 renal | OVCAR-4 ovarian | MALME-3M melanoma | SNB-75 CNS | RPMI-8226 leukemia | DMS 114 small cell lung | CAKI-1 renal
> 100 µM: all other assays above

OCC1OC(n2ccc3cnccc32)CC1O (configuration not stated)
not listed: XF 498 CNS | SF-268 CNS | RXF 393 renal | KM20L2 colon
> 100 µM: all other assays above
